According to patent US20260374818A1, “CATIONIC PEPTIDES WITH BROAD SPECTRUM ACTIVITY” (priority 2023, published 2026):
Converted amounts (≈) assume the structure as drawn. Where a SMILES comes first, the peptide text is derived from it. [ ]: non-standard residue; d: D form.

What was measured:
[1] = system: P. aeruginosa PAO1 biofilms; test: Biofilm inhibition by SPOT-synthesized AB103-D variants (crystal violet), P. aeruginosa; format: cell-based, Pseudomonas aeruginosa; details: P. aeruginosa PAO1, SPOT peptides
MRSA USA300 biofilms = test: Biofilm inhibition by >95% pure peptides (crystal violet), MRSA; format: cell-based, methicillin resistant Staphylococcus aureus; details: MRSA USA300 biofilms, >95% pure peptides, 10% TSB + 0.1% glucose
P. aeruginosa PAO1 [2] = test: MIC (broth microdilution) of peptides, P. aeruginosa; format: cell-based, Pseudomonas aeruginosa; details: mode of three biological replicates
Description: (§1) Minimal inhibitory concentration (MIC) against planktonic bacteria: The MIC of the synthetic peptides was determined in Mueller-Hinton broth (MHB) using the broth microdilution method described previously [Wiegand, I., Hilpert, K., & Hancock, R. E. (2008). Agar and broth dilution methods to determine the minimal inhibitory concentration (MIC) of antimicrobial substances. Nature Protocols, 3(2), 163-175]. Briefly, 10 μl of a 10× concentrated peptide solution was placed in the bottom of a well in a 96-well polypropylene round bottom plate (Corning Inc.). A bacterial suspension of ~5×10^5 CFU/ml was prepared from an overnight culture and 90 μl of this was added to each well. […] Bacteria tested included P. aeruginosa PAO1, MRSA USA300 LAC, Staphylococcus haemolyticus, Staphylococcus epidermidis, Klebsiella pneumoniae and Streptococcus salivarius.
(§2) Finally, the AB103-D derivatives that were the least aggregation prone and which produced the lowest toxic effects in vivo were evaluated for their direct antibacterial activity towards several pathogens of clinical relevance using a standard minimum inhibitory concentration (MIC) assay [Wiegand, I., Hilpert, K., & Hancock, R. E. (2008). Agar and broth dilution methods to determine the minimal inhibitory concentration (MIC) of antimicrobial substances. Nature Protocols, 3(2), 163-175]. Specifically, peptides AB110-D, AB111-D, AB114-D and AB115-D were tested against P. aeruginosa PAO1, MRSA USA 300, Staphylococcus haemolyticus, Staphylococcus epidermidis, Klebsiella pneumoniae and Streptococcus salivarius and compared against the antibacterial activity of DJK-5 and AB103-D (Table 7). Overall, the antibacterial potency of all of the AB103-D derivatives was stronger than that seen for DJK-5, particularly in the case of the Gram-negative pathogens P. aeruginosa and K. pneumoniae. […]

MRSA USA 300 = test: MIC (broth microdilution) of peptides, MRSA; format: cell-based, methicillin resistant Staphylococcus aureus; details: MRSA USA300; mode of three biological replicates
Description: as §1, §2

[3] = system: Staphylococcus haemolyticus; test: MIC (broth microdilution) of peptides, S. haemolyticus; format: cell-based; details: mode of three biological replicates
Description: as §1, §2

[4] = Subdermal murine toxicity model; details: for Average cyst size compared to DJK-5: 16 hours after administration, 4 mg/kg
Description: FIGS. 14A-14B show murine subdermal toxicity assessment of AB103-D derived peptides. Clinical scores were recorded for each peptide treated mouse one hour after peptide administration (FIG. 14A). […] The presence of a cyst or lesion was recorded 16 hours after peptide administration and the size of the cyst was measured using calipers (FIG. 14B). Data shown are the mean of two independent replicates at a peptide dose of 4 mg/kg.
Subdermal murine toxicity model: A subdermal toxicity mouse model was used to evaluate whether peptides induced localized toxicity of treated cutaneous tissue. Mice were anesthetized with 2.5-3% isoflurane and their fur was removed by shaving followed by application of a chemical depilatory. […] Mice were visually assessed and received clinical scores for a battery of signs or symptoms (activity/behaviour change, appearance/grooming, hydration, pain, cyst formation), for which a score of zero was given to animals that appeared normal. Animals were weighed and clinical scores were totalled. Following an overnight (16 h) incubation, mice were scored and weighed then euthanized with CO2 followed by cervical dislocation. Mice were imaged and cysts (swollen, inflamed tissue) were measured using a caliper. Animal experiments were performed in accordance with the Canadian Council on Animal Care (CCAC) guidelines and were approved by the University of British Columbia Animal Care Committee. Female CD-1 mice were purchased from Charles River Laboratories, Inc. (Wilmington, MA). All mice were 8 weeks of age and weighed 25±5 g at the time of the experiment. Animals were group housed in cohorts of three to four littermates. Standard animal husbandry practices were employed.

[5] = system: P. aeruginosa PAO1 biofilms; details: P. aeruginosa PAO1 biofilms; >95% pure peptides; crystal violet; BM2 minimal media
[6] = system: Staphylococcus epidermidis; test: MIC (broth microdilution) of peptides, S. epidermidis; format: cell-based; details: mode of three biological replicates
Description: as §1, §2

Klebsiella pneumoniae = test: MIC (broth microdilution) of peptides, K. pneumoniae; format: cell-based; details: mode of three biological replicates
Description: as §1, §2

Streptococcus salivarius = test: MIC (broth microdilution) of peptides, S. salivarius; format: cell-based; details: mode of three biological replicates
Description: as §1, §2

MRSA USA300 = test: Biofilm inhibition (at least 80%), MRSA; format: cell-based, methicillin resistant Staphylococcus aureus; details: n = 4, 10% TSB + 0.1% glucose, 18-24 hours, crystal violet
[7] = system: Acinetobacter baumannii Ab5075; test: Biofilm inhibition (at least 80%), A. baumannii; format: cell-based; details: n = 4, BM2 minimal media, 18-24 hours, crystal violet
P. aeruginosa PAO1 [8] = test: Biofilm inhibition (at least 80%), P. aeruginosa; format: cell-based, Pseudomonas aeruginosa; details: n = 4, BM2 minimal media, 18-24 hours, crystal violet
E. coli O157:H7 = test: Biofilm inhibition (at least 80%), E. coli; format: cell-based, Escherichia coli; details: n = 3, BM2 minimal media, 18-24 hours, crystal violet

Row | SMILES | Activity against PAO1 biofilms compared to AB103-D [1] | minimum inhibitory concentration of peptide that inhibited at least 90% of biofilm growth (MBIC90) (MRSA USA300 biofilms) [µM] | MIC (P. aeruginosa PAO1 [2]) [µg/mL] | MIC (MRSA USA 300) [µg/mL] | MIC [3] [µg/mL] | Average cyst size compared to DJK-5 [4] | minimum inhibitory concentration of peptide that inhibited at least 90% of biofilm growth (MBIC90) [5] [µM] | MIC [6] [µg/mL] | MIC (Klebsiella pneumoniae) [µg/mL] | MIC (Streptococcus salivarius) [µg/mL] | Clinical score ([4]; 1 hour after subcutaneous administration, comparator DJK-5) | Peptide/Antibiotic Concentration where at least 80% of biofilm growth was inhibited (MRSA USA300) [µg/mL] | Peptide/Antibiotic Concentration where at least 80% of biofilm growth was inhibited [7] [µg/mL] | Peptide/Antibiotic Concentration where at least 80% of biofilm growth was inhibited (P. aeruginosa PAO1 [8]) [µg/mL] | Peptide/Antibiotic Concentration where at least 80% of biofilm growth was inhibited (E. coli O157:H7) [µg/mL]
1 | CC[C@@H](C)[C@@H](NC(=O)[C@@H](C)NC(=O)[C@@H](CCCNC(=N)N)NC(=O)[C@@H](Cc1c[nH]c2ccccc12)NC(=O)[C@@H](CCC(N)=O)NC(=O)[C@H](NC(=O)[C@@H](CCCNC(=N)N)NC(=O)[C@H](NC(=O)[C@@H](Cc1c[nH]c2ccccc12)NC(=O)[C@@H](CCCNC(=N)N)NC(=O)[C@H](NC(=O)[C@H](N)CCCNC(=N)N)C(C)C)[C@H](C)CC)C(C)C)C(N)=O [AB110-D, rvrwirvqwrai] (H-[dR][dV][dR][dW][dI][dR][dV][dQ][dW][dR][dA][dI]-NH2) | activity superior to that of AB103-D | 1 | 2 (≈ 1.22 µM) | 0.8 (≈ 0.488 µM) | 0.8 (≈ 0.488 µM) | smaller than those induced by DJK-5 | 4 |  |  |  |  |  |  |  | 
2 | CC[C@@H](C)[C@@H](NC(=O)[C@@H](C)NC(=O)[C@@H](CCCNC(=N)N)NC(=O)[C@@H](CC(C)C)NC(=O)[C@@H](CCC(N)=O)NC(=O)[C@H](NC(=O)[C@@H](CCCNC(=N)N)NC(=O)[C@H](NC(=O)[C@H](NC(=O)[C@@H](CCCNC(=N)N)NC(=O)[C@H](NC(=O)[C@H](N)CCCNC(=N)N)C(C)C)C(C)C)[C@H](C)CC)C(C)C)C(N)=O [AB115-D, rvrvirvqlrai] (H-[dR][dV][dR][dV][dI][dR][dV][dQ][dL][dR][dA][dI]-NH2) |  | 1 | 2 (≈ 1.35 µM) | 0.8 (≈ 0.541 µM) | 0.8 (≈ 0.541 µM) | smaller than those induced by DJK-5 | 8 | 0.8 (≈ 0.541 µM) | 0.8 (≈ 0.541 µM) | 0.8 (≈ 0.541 µM) | < 2 |  |  |  | 
3 | CC[C@@H](C)[C@@H](NC(=O)[C@@H](C)NC(=O)[C@@H](CCCNC(=N)N)NC(=O)[C@@H](Cc1c[nH]c2ccccc12)NC(=O)[C@@H](CCC(N)=O)NC(=O)[C@H](NC(=O)[C@@H](CCCNC(=N)N)NC(=O)[C@H](NC(=O)[C@H](NC(=O)[C@H](NC(=O)[C@H](NC(=O)[C@H](N)CCCNC(=N)N)C(C)C)[C@H](C)CC)C(C)C)[C@H](C)CC)C(C)C)C(N)=O [AB116-D, rvivirvqwrai] (H-[dR][dV][dI][dV][dI][dR][dV][dQ][dW][dR][dA][dI]-NH2) | activity superior to that of AB103-D | 1 |  |  |  | smaller than those induced by DJK-5 | >16 |  |  |  |  |  |  |  | 
4 | O=C(O)c1cn(C2CC2)c2cc(N3CCNCC3)c(F)cc2c1=O [CIP] |  |  |  |  |  |  |  |  |  |  |  | 8 | 32 | 0.125 | 0.0625
